The test system of this assay is HCV. Nature of the assay: Assay of anti-HCV activity in HCV-infected Huh7.5 cells (intracellular HCV RNA by one-step quantitative RT-PCR). The class given is cell-based. Conditions: Hepatitis C virus; compound at 1 μM; Huh7.5 cells infected with HCV; 96 hrs; intracellular HCV RNA vs viral control; read-out: inhibitory activities (inhibitory levels of the compounds against HCV replication). As for the experimental part: 100 μL Huh7.5 cells were seeded at a density of 1×10^5/mL in a 96-well cell culture plate and incubated in an incubator at 37° C., 5% CO2 and saturated humidity for 6 hrs. Then, while infecting Huh7.5 cells with viral solution containing HCV virus particles, the compounds of the present invention (including all specific compounds listed herein) were added at a concentration of 1 μM, respectively. After continuing incubation for 96 hrs, the total intracellular RNA was extracted separately, and the content of intracellular HCV RNA was measured by one-step quantitative RT-PCR, compared with the RNA level of the viral control, and the inhibition rate of the compounds against HCV was calculated.

With `CC(c1ccc(Br)cc1)N1CCN(Cc2cc(N3CCCN(C)CC3)ccc2C(F)(F)F)CC1` (centres unmarked) [Compound 1, 1-(3-((4-(1-(4-bromophenyl)ethyl)piperazin-1-yl)methyl)-4-(trifluoromethyl)phenyl)-4-methyl-1,4-diazepane], the inhibition at 1 µM is more than 75%.

As to `CN1CCCN(c2ccc(C(F)(F)F)c(CN3CCN(Cc4ccc(Cl)cc4)CC3)c2)CC1` [Compound 2, 1-(3-((4-(4-chlorobenzyl)piperazin-1-yl)methyl)-4-(trifluoromethyl)phenyl)-4-methyl-1,4-diazepane], the inhibition at 1 µM was more than 75%.

Take `CC(c1ccc(F)c(Cl)c1)N1CCN(Cc2cc(N3CCCN(C)CC3)ccc2C(F)(F)F)CC1` (centres unmarked) [Compound 3, 1-(3-((4-(1-(3-chloro-4-fluorophenyl)ethyl)piperazin-1-yl)methyl)-4-(trifluoromethyl)phenyl)-4-methyl-1,4-diazepane]: the inhibition at 1 µM was more than 75%.

As for `Cc1cc(CN2CCN(Cc3cc(N4CCCN(C)CC4)ccc3C(F)(F)F)CC2)ccc1Cl` [Compound 4, 1-(3-((4-(4-chloro-3-methylbenzyl)piperazin-1-yl)methyl)-4-(trifluoromethyl)phenyl)-4-methyl-1,4-diazepane], the inhibition at 1 µM is more than 75%.

Consider `CCCC(c1ccc(OC)cc1)N1CCN(Cc2cc(N3CCCN(C)CC3)ccc2C(F)(F)F)CC1` (centres unmarked) [Compound 5, 1-(3-((4-(1-(4-methoxyphenyl)butyl)piperazin-1-yl)methyl)-4-(trifluoromethyl)phenyl)-4-methyl-1,4-diazepane], for which the inhibition at 1 µM was more than 75%.

Consider `CN1CCN(c2ccc(C(F)(F)F)c(CN3CCN(Cc4ccc(Cl)c(Cl)c4)CC3)c2)CC1` [Compound 6, 1-(3,4-dichlorobenzyl)-4-(5-(4-methylpiperazin-1-yl)-2-(trifluoromethyl)benzyl)piperazine], for which the inhibition at 1 µM was more than 75%.

`CN1CCCN(c2ccc(C(F)(F)F)c(CN3CCC(Cc4ccc(Cl)cc4)CC3)c2)CC1` [Compound 7, 1-(3-((4-(4-chlorobenzyl)piperidin-1-yl)methyl)-4-(trifluoromethyl)phenyl)-4-methyl-1,4-diazepane]: the inhibition at 1 µM is 50 to 75%.

For `CCC(c1ccc(Br)cc1)N1CCN(Cc2cc(N(C)CCN(C)C)ccc2C(F)(F)F)CC1` (centres unmarked) [Compound 8, N^1-(3-((4-(1-(4-bromophenyl)propyl)piperazin-1-yl)methyl)-4-(trifluoromethyl)phenyl)-N^1,N^2,N^2-trimethylethan-1,2-diamine], the inhibition at 1 µM is more than 75%.

`CC(c1ccc(Cl)cc1)N1CCN(Cc2cc(N(C)CCN(C)C)ccc2C(F)(F)F)CC1` (centres unmarked) [Compound 9, N^1-(3-((4-(1-(4-chlorophenyl)ethyl)piperazin-1-yl)methyl)-4-(trifluoromethyl)phenyl)-N^1,N^2,N^2-trimethylethan-1,2-diamine]: the inhibition at 1 µM is more than 75%.

Turning to `Cc1ccc(CN2CCN(Cc3cc(N(C)CCN(C)C)ccc3C(F)(F)F)CC2)cc1` [Compound 10, N^1,N^1,N^2-trimethyl-N^2-(3-((4-(4-methylbenzyl)piperazin-1-yl)methyl)-4-(trifluoromethyl)phenyl)ethan-1,2-diamine], the inhibition at 1 µM is 50 to 75%.

Take `CCN1CCN(c2ccc(C#N)c(CN3CCN(Cc4ccc(Cl)c(C)c4)CC3)c2)CC1` [Compound 11, 2-((4-(4-chloro-3-methylbenzyl)piperazin-1-yl)methyl)-4-(4-ethylpiperazin-1-yl)benzonitrile]: the inhibition at 1 µM lay within 50 to 75%.

Regarding `N#Cc1ccc(N2CCN(C3CC3)CC2)cc1CN1CCN(Cc2ccc(Cl)cc2)CC1` [Compound 12, 2-((4-(4-chlorobenzyl)piperazin-1-yl)methyl)-4-(4-cyclopropylpiperazin-1-yl)benzonitrile], the inhibition at 1 µM lay in the range of 50 to 75%.

Consider `CCN(C)CCN(C)c1ccc(C#N)c(CN2CCN(C(C)c3ccc(Cl)cc3)CC2)c1` (centres unmarked) [Compound 13, 2-((4-(1-(4-chlorophenyl)ethyl)piperazin-1-yl)methyl)-4-((2-(ethyl(methyl)amino)ethyl)(methyl)amino)benzonitrile], for which the inhibition at 1 µM was more than 75%.

For `CC(c1ccccc1)N1CCN(Cc2cc(N3CCCC(N(C)C)C3)ccc2C#N)CC1` (centres unmarked) [Compound 14, 4-(3-(dimethylamino)piperidin-1-yl)-2-((4-(1-phenylethyl)piperazin-1-yl)methyl)benzonitrile], the inhibition at 1 µM was in the range of 50 to 75%.

With `CC(c1ccc(C(F)(F)F)cc1)N1CCN(Cc2cc(N(C)CCN(C)C)ccc2C#N)CC1` (centres unmarked) [Compound 15, 4-((2-(dimethylamino)ethyl)(methyl)amino)-2-((4-(1-(4-(trifluoromethyl)phenyl)ethyl)piperazin-1-yl)methyl)benzonitrile], the inhibition at 1 µM is more than 75%.

Take `CC(C)C(c1ccc(Cl)cc1)N1CCN(Cc2cc(N(C)CCN3CCCC3)ccc2C#N)CC1` (centres unmarked) [Compound 16, 2-((4-(1-(4-chlorophenyl)-2-methylpropyl)piperazin-1-yl)methyl)-4-(methyl(2-(pyrrolidin-1-yl)ethyl)amino)benzonitrile]: the inhibition at 1 µM is more than 75%.

Consider `CCN(CC)CCN(C)c1ccc(C#N)c(CN2CCN(Cc3ccc(F)c(Cl)c3)CC2)c1` [Compound 17, 2-((4-(3-chloro-4-fluorobenzyl)piperazin-1-yl)methyl)-4-((2-(diethylamino)ethyl)(methyl)amino)benzonitrile], for which the inhibition at 1 µM was more than 75%.

On to `N#Cc1ccc(NCCCn2cccc2)cc1CN1CCN(Cc2ccc(Cl)c(Cl)c2)CC1` [Compound 18, 4-((3-(1H-pyrrol-1-yl)propyl)amino)-2-((4-(3,4-dichlorobenzyl)piperazin-1-yl)methyl)benzonitrile], for which the inhibition at 1 µM was more than 75%.

Take `CN(C)CCN(C)c1ccc(C(F)(F)F)c(CN2CCN(c3ccc(Cl)cc3)CC2)c1` [Compound 19, N^1-(3-((4-(4-chlorophenyl)piperazin-1-yl)methyl)-4-(trifluoromethyl)phenyl)-N^1,N^2,N^2-trimethylethan-1,2-diamine]: the inhibition at 1 µM was more than 75%.

`CN(C)CCN(C)c1ccc(C(F)(F)F)c(CN2CCN(c3ccc(Br)cc3)CC2)c1` [Compound 20, N^1-(3-((4-(4-bromophenyl)piperazin-1-yl)methyl)-4-(trifluoromethyl)phenyl)-N^1,N^2,N^2-trimethylethan-1,2-diamine]: the inhibition at 1 µM was more than 75%.

On to `CN(CC1CCCCN1C)c1ccc(C(F)(F)F)c(CN2CCN(c3ccc(Cl)cc3)CC2)c1` (centres unmarked) [Compound 21, 3-((4-(4-chlorophenyl)piperazin-1-yl)methyl)-N-methyl-N-((1-methylpiperidin-2-yl)methyl)-4-(trifluoromethyl)aniline], for which the inhibition at 1 µM was more than 75%.

For `CC1CN(c2ccc(Cl)cc2)CCN1Cc1cc(N2CCCN(C)CC2)ccc1C(F)(F)F` (centres unmarked) [Compound 22, 1-(3-((4-(4-chlorophenyl)-2-methylpiperazin-1-yl)methyl)-4-(trifluoromethyl)phenyl)-4-methyl-1,4-diazepane], the inhibition at 1 µM is more than 75%.

Turning to `CN1CCCN(c2ccc(C(F)(F)F)c(CN3CCN(c4ccc(Cl)cc4)CC3)c2)CC1` [Compound 23, 1-(3-((4-(4-chlorophenyl)piperazin-1-yl)methyl)-4-(trifluoromethyl)phenyl)-4-methyl-1,4-diazepane], the inhibition at 1 µM was more than 75%.

(Values after US11939307B2, “Phenylmethyl-piperazine derivatives and antiviral uses thereof” (INSTITUTE OF MEDICINAL BIOTECHNOLOGY, CHINESE ACADEMY OF …, priority 2019, dated 2024).)
